Results as given in patent EP0368576B1, “Insecticide comprising a suspension of microcapsules containing chlorpyrifos” (priority 1988, dated 1990).

Tests used:
Acute oral toxicity test = conditions: mouse, in vivo, ICR male mice (5 weeks old), read-out: Acute oral toxicity LD₅₀
Procedure: (§1) Tests of the acute oral toxicity and the acute dermal toxicity of the encapsulated insecticide produced in Example 2 and the acute toxicity thereof to fish were carried out as follows.
(§2) A group of 5 ICR male mice (5 weeks old) and a group of 5 Wister male rats (8 weeks old) were used for the acute oral toxicity test and the acute dermal toxicity test, respectively. Tests were carried out to obtain LD₅₀ values in accordance with the toxicity guidance of agricultural chemicals (Agricultural production No. 59 - 4200) (Notification of Director-General, Agricultural Production Bureau, 59 Nohsan No. 4200 dated January 28, 1985) issued by the Agricultural and Fisheries Ministry. The test for acute toxity to fish was carried out using groups of carp, each group consisting of 10 carp, in accordance with the Circular Notice No. 2735 issued by Director of the Agricultural Administration Bureau in the Agricultural and Fisheries Ministry to obtain the TLm of each group.

[1] = Acute dermal toxicity test; conditions: Wistar, rat, in vivo, topical or ocular, Wister male rats (8 weeks old), read-out: Acute dermal toxicity LD₅₀
Procedure: as §1, §2

carp = assay: Acute toxicity to fish; format: in vivo
Procedure: as §1, §2

[2] = Test of the release property in soil; format: physicochemical; conditions: sand soil, 65 days; rate based on the original amount
Procedure: 7.5 g of the encapsulated insecticide produced in Example 2 was dispersed in 100 mℓ of water, and 1 mℓ of the dispersion was added to 30 g of soil (sand soil of Mt. Kannan) which had been put into a 100-mℓ beaker, and thoroughly mixed therewith.
Separately from this, 1500 mg of the chlorpyrifos was dissolved into 100 mℓ of acetone and 1 mℓ of the solution was added to 30 g of soil (same as above) and thoroughly mixed therewith.
The beaker was covered with aluminium foil, and water was sometimes sprayed on the soil to prevent the soil from drying. 65 days after, the amount of chlorpyrifos in the beaker was measured.
In order to measure the total amount of chlorpyrifos, 150 mℓ of acetone and 2 mℓ of concentrated hydrochloric acid was added to 30 g of the soil. The mixture was refluxed under heating in a water bath at 65°C for 1 hour, and after cooling filtered through No. 5C filter paper. The residue was further washed with 100 mℓ of acetone, and diluted so that the total volume was 250 mℓ to measure the amount of chlorpyrifos by high-speed liquid chromatography.
The amount of chlorpyrifos liberated was measured in the following manner. A mixture solvent of methanol and water (60/40) was added to 30 g of the soil. After the mixture was shaken for 10 minutes, the mixture was filtered through No. 5C filter paper. […]

With `CCOP(=S)(OCC)Oc1nc(Cl)c(Cl)cc1Cl` [Technical, 0,0-diethyl-0-3,5,6-trichloro-2-pyridyl-phosphorothioate] the LD50 (Acute oral toxicity test) was 178 mg/kg, the LD50 [1] was 202 mg/kg and the “Toxicity to fish TLm (48 h)” value (carp) was 0.13 ppm. The “Amount of chlorpyrifos remaining in the soil: Total amount of chlorpyrifos” value [2] was 41 wt%.
